Each structure is given as a SMILES string.

The target of this assay is T1, alpha 1A adrenoceptors (Homo sapiens, UniProt P35348).
T1 construct: expressed in transfected cells; host or cells: CHO-K1 (clone 13)
T1 sequence (P35348 1-466): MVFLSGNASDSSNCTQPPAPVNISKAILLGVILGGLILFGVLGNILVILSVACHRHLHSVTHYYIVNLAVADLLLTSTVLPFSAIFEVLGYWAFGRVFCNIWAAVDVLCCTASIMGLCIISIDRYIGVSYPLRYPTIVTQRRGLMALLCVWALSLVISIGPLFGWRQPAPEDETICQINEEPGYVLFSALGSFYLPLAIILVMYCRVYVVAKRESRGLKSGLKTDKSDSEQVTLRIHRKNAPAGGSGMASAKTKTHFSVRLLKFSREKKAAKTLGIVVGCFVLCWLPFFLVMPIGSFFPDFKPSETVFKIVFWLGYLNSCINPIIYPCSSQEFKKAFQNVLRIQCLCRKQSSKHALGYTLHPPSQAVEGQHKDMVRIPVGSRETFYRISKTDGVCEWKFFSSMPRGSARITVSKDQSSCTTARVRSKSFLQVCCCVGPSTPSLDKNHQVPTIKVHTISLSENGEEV
Briefly: Functional assay: fluorescent dye (Fluo-3, FLIPR) determination of intracellular calcium in CHO-K1 cells expressing alpha 1A adrenoceptors (clone 13). Type of assay: cell-based. Particulars: for EC50: CHO-K1 cells expressing alpha 1A adrenoceptor (clone 13), agonist, intracellular calcium, FLIPR, read-out: CHO-1A-13 pEC50 (converted); for CHO-1A-13 IA: intrinsic activity: maximum response relative to norepinephrine bitartrate (full agonist), CHO-K1 alpha 1A clone 13. How it is done:
The activity of potential α1A/L activity in vitro was determined by evaluating the potency and relative intrinsic activity (relative to norepinephrine or phenylephrine) of standard and novel compounds using fluorescent dye determination of intracellular calcium concentrations.
This example illustrates a functional assay which can be used to determine α1A/L agonist activity of Compounds of Formula I.
The activity of compounds of this invention in vitro was examined using fluorescent dye determination of intracellular calcium concentrations.
Chinese hamster ovary cells CHO-K1 expressing the alpha 1A adrenoceptors (clone 13) are washed 4 times (approx. 300 μL/well) with fluorometric imaging plate reader (FLIPR) buffer (Hank's buffered saline solution (HBSS), 2 mM CaCl2, 10 mM HEPES, 2.5 mM probenecid, 100 μM ascorbic acid), with a final volume of 150 μL/well. Cells are loaded with 50 μL/well of 8 μM Fluo-3 AM (Molecular Probes, Eugene, Oreg.), for a final concentration of 2 μM Fluo-3 AM. Cells are then incubated for 60 min at 37° C. Following dye loading, cells are washed 4 times (approx. 300 μL/well) with FLIPR buffer with a final volume of 150 μL/well.
Test compound, control compound and reference compound are run in quadruplicate, 8-point curves on each plate with a final assay concentration range of 10^−4 M to 10^−11 M for each compound. All compounds are dissolved in DMSO at 10 mM, and serially diluted in FLIPR buffer.
The assay plate is placed in the FLIPR incubation chamber and a baseline fluorescence measurement (excitation @ 488 nm and emission @ 510-570 nm) is obtained (15 sec interval). An experimental run is then commenced. The reaction is started with the addition of 50 μL/well (at 4× final concentration) of test, control, or reference compound solution from the agonist plate to the assay plate to all 96 wells simultaneously. Fluorescence is measured for 120 sec at 1 sec intervals. Then, a second addition of 5 μM ionomycin (50 μL/well from 5× concentration ionomycin plate) is added to the assay plate. Fluorescence is measured for 30 sec at 1 sec intervals. All experiments are conducted at room temperature.
For each assay plate, responses (increase in peak fluorescence) in each well following addition of agonist (test, control and reference) are determined. These responses may be expressed as raw CFU (Corrected Fluorescence Units), as a % maximum ionomycin response or other unit as determined by the investigator.
For test compound, control compound (Norepinephrine (NE) bitartrate), and reference compound, the concentration producing a 50% increase in control response (EC50) is determined using iterative curve-fitting methods. Excel spreadsheet or Kaleidagraph software are used to fit data to the general logistic function (E=B+Emax·A^nH/A^nH+EC50^nH), where B is the corrected baseline fluorescence units (defined as zero), A is the concentration of agonist added and nH is the Hill slope (constrained to unity). EC50 values and maxima (Emax) for each curve can be estimated objectively using this software.
In addition, the intrinsic activity (a) is determined. Intrinsic activity is defined as the maximum response to test agonist divided by the maximum response to a full agonist acting through the same receptor. For these experiments, the full agonist is defined as Norepinephrine (NE) bitartrate (control).
As used herein an agonist is a compound that elicits a maximal response greater of that of norepinephrine with a pEC50>5.5.
On the technique in general: Calcium flux is commonly read through the fluorescence of an indicator in the cells.

`COc1cc(CC2=NCCN2)ccc1NS(C)(=O)=O` [Compound 2, N-[4-(4,5-Dihydro-1H-imidazol-2-ylmethyl)-2-methoxy-phenyl]-methanesulfonamide]: the EC50 was 170 nM and the “CHO-1A-13 IA” value is reported as 0.92.
Regarding `COc1cc(NS(C)(=O)=O)ccc1CC1=NCCN1` [Compound 6, N-[4-(4,5-Dihydro-1H-imidazol-2-ylmethyl)-3-methoxy-phenyl]-methanesulfonamide], the EC50 was 347 nM and the “CHO-1A-13 IA” value is 0.43.
The matching figures for `CS(=O)(=O)Nc1ccc(CC2=NCCN2)c2ccoc12` [Compound 8, N-[4-(4,5-Dihydro-1H-imidazol-2-ylmethyl)-benzofuran-7-yl]-methanesulfonamide]: 302 nM and 0.65.
The corresponding values for `CCS(=O)(=O)Nc1ccc(CC2=NCCN2)cc1Cl` [Compound 13, Ethanesulfonic acid [2-chloro-4-(4,5-dihydro-1H-imidazol-2-ylmethyl)-phenyl]-amide] are 661 nM and 0.16.
The corresponding values for `COc1cc(NS(C)(=O)=O)c(OC)cc1CC1=NCCN1` [Compound 22, N-[4-(4,5-Dihydro-1H-imidazol-2-ylmethyl)-2,5-dimethoxy-phenyl]-methanesulfonamide] are 692 nM and 0.27.
With `COc1cc(CC2=NCCN2)c(Cl)cc1NS(C)(=O)=O` [Compound 25, N-[5-Chloro-4-(4,5-dihydro-1H-imidazol-2-ylmethyl)-2-methoxy-phenyl]-methanesulfonamide], the EC50 is 75.9 nM and the “CHO-1A-13 IA” value is listed as 0.81.
